From the supplement of paper PMC10307832

What was measured:
Assay in all cases: relative viability (nuclei count vs DMSO), 5 days (fraction); higher = more cells survive
Linifanib + Lapatinib = compound: Cc1ccc(F)c(NC(=O)Nc2ccc(-c3cccc4[nH]nc(N)c34)cc2)c1 [Linifanib] + CS(=O)(=O)CCNCc1ccc(-c2ccc3ncnc(Nc4ccc(OCc5cccc(F)c5)c(Cl)c4)c3c2)o1 [Lapatinib] (partner 2 µM)
In short: (§1)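 Lung cancer cell lines in 1536-well plates were dosed by pin tool the day after seeding, either with one drug alone or with a fixed anchor-drug dose plus five library-drug doses (not always all listed) in √10 steps. After 5 days, cells were fixed and their nuclei stained in one step (final 0.05% Triton X-100, 1% formaldehyde, 1 ug/ml Hoechst), then counted on 4× images. Relative viability is the nuclei count in treated wells divided by that in vehicle wells. Values are medians of duplicate plates.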

Linifanib + Foretinib = compound: Cc1ccc(F)c(NC(=O)Nc2ccc(-c3cccc4[nH]nc(N)c34)cc2)c1 [Linifanib] + COc1cc2c(Oc3ccc(NC(=O)C4(C(=O)Nc5ccc(F)cc5)CC4)cc3F)ccnc2cc1OCCCN1CCOCC1 [Foretinib] (partner 0.25 µM)
In short: as §1

Linifanib + Bortezomib = compound: Cc1ccc(F)c(NC(=O)Nc2ccc(-c3cccc4[nH]nc(N)c34)cc2)c1 [Linifanib] + CC(C)C[C@H](NC(=O)[C@H](Cc1ccccc1)NC(=O)c1cnccn1)B(O)O [Bortezomib] (partner 0.002 µM)
In short: as §1

Linifanib + Alpelisib = compound: Cc1ccc(F)c(NC(=O)Nc2ccc(-c3cccc4[nH]nc(N)c34)cc2)c1 [Linifanib] + Cc1nc(NC(=O)N2CCC[C@H]2C(N)=O)sc1-c1ccnc(C(C)(C)C(F)(F)F)c1 [Alpelisib] (partner 2 µM)
In short: as §1

Linifanib + Trametinib = compound: Cc1ccc(F)c(NC(=O)Nc2ccc(-c3cccc4[nH]nc(N)c34)cc2)c1 [Linifanib] + CC(=O)Nc1cccc(-n2c(=O)n(C3CC3)c(=O)c3c(Nc4ccc(I)cc4F)n(C)c(=O)c(C)c32)c1 [Trametinib] (partner 0.02 µM)
In short: as §1

Linifanib + OSI-027 = compound: Cc1ccc(F)c(NC(=O)Nc2ccc(-c3cccc4[nH]nc(N)c34)cc2)c1 [Linifanib] + COc1cccc2cc(-c3nc([C@H]4CC[C@H](C(=O)O)CC4)n4ncnc(N)c34)[nH]c12 [OSI-027] (partner 0.5 µM)
In short: as §1

Cell Line	relative viability (Linifanib + Lapatinib; first compound 0.03162 µM)	relative viability (Linifanib + Lapatinib; first compound 0.1 µM)	relative viability (Linifanib + Lapatinib; first compound 0.3162 µM)	relative viability (Linifanib + Foretinib; first compound 0.03162 µM)	relative viability (Linifanib + Foretinib; first compound 0.1 µM)	relative viability (Linifanib + Foretinib; first compound 0.3162 µM)	relative viability (Linifanib + Bortezomib; first compound 0.03162 µM)	relative viability (Linifanib + Bortezomib; first compound 0.1 µM)	relative viability (Linifanib + Bortezomib; first compound 0.3162 µM)	relative viability (Linifanib + Alpelisib; first compound 0.03162 µM)	relative viability (Linifanib + Alpelisib; first compound 0.1 µM)	relative viability (Linifanib + Alpelisib; first compound 0.3162 µM)	relative viability (Linifanib + Trametinib; first compound 0.03162 µM)	relative viability (Linifanib + Trametinib; first compound 0.1 µM)	relative viability (Linifanib + Trametinib; first compound 0.3162 µM)	relative viability (Linifanib + OSI-027; first compound 0.03162 µM)	relative viability (Linifanib + OSI-027; first compound 0.1 µM)	relative viability (Linifanib + OSI-027; first compound 0.3162 µM)
NCI-H1755	1.1	1.09	1.01	0.934	0.912	0.902	1.04	0.965	0.916	0.966	0.963	0.833	0.781	0.801	0.831	0.753	0.827	0.669
LOU-NH91	0.772	0.828	0.747	0.942	0.981	0.884	0.47	0.548	0.463	0.686	0.771	0.704	0.775	0.798	0.762	0.697	0.796	0.709
NCI-H1993	0.796	0.853	0.878	0.807	0.88	0.758	1.1	1.39	1.2	0.628	0.711	0.646	0.623	0.593	0.61	0.495	0.552	0.61
HCC-15	0.841	0.839	0.853	1.01	1.04	1.09	1.04	0.99	0.988	0.881	0.941	0.887	0.346	0.409	0.365	0.735	0.795	0.7
HCC-827	0.19	0.173	0.191	1.06	1.11	1.1	1.04	0.991	0.977	0.986	1.06	0.922	0.559	0.522	0.514	0.82	0.93	0.716
HCC-366	1.02	1.12	0.895	1.01	0.981	0.826	1	1.1	1.02	0.533	0.664	0.357	0.4	0.391	0.399	0.898	1.29	0.795
UMC-11	1	1.1	1.06	0.986	1.16	1.04	0.961	0.731	0.668	0.945	1.15	0.99	0.807	0.721	0.774	0.446	0.465	0.45
NCI-H727	0.781	1.05	0.716	1.03	0.921	0.723	0.934	0.922	0.702	0.613	0.6	0.483	0.396	0.418	0.388	0.642	0.635	0.722
NCI-H2009	1.23	0.928	0.941	1.24	1.25	1.15	1.25	1.05	0.963	1.16	1.19	1.08	0.266	0.343	0.274	0.705	0.673	0.644
NCI-H2405	1.19	1.05	1.12	1.06	1.04	1.07	1.05	0.958	0.957	0.801	0.847	0.701	0.599	0.675	0.596	0.667	0.66	0.624
NCI-H23	0.991	1.14	1.01	1.28	0.964	1.15	1.03	1.2	1.16	0.563	0.807	0.76	0.399	0.487	0.396	0.577	0.75	0.572
NCI-H2347	0.955	0.927	0.909	1.09	1.25	0.782	1.11	1.16	0.778	1.07	1.05	1.08	0.283	0.292	0.264	0.476	0.434	0.415
PC-3 [JPC-3]	0.482	0.413	0.496	1.05	0.973	0.993	0.728	0.805	0.77	1.05	1.02	1.04	0.706	0.756	0.659	0.702	0.771	0.659
NCI-H1355	1.04	0.934	1.01	0.994	1.04	0.941	1.23	1.26	1.26	0.81	0.823	0.794	0.407	0.497	0.404	0.418	0.497	0.434
NCI-H3122	1.11	1.11	0.922	0.946	0.965	0.932	1.01	1	0.989	0.761	0.783	0.786	0.273	0.251	0.19	0.947	0.989	0.995
COR-L 105	0.388	0.381	0.333	0.968	1.08	0.919	0.954	0.851	0.735	1	1.02	1.01	0.444	0.451	0.45	0.698	0.874	0.602
